Laboratory results as given in US11691968B2, “Compound having KDM5 inhibitory activity and pharmaceutical use thereof” (ONO PHARMACEUTICAL CO., LTD., priority 2020, dated 2023).
Like-named read-outs stand apart in the source and are kept apart here.

Columns and labels:
KDM5A = KDM5A (Homo sapiens (Human), UniProt P29375); experiment: Biochemical KDM5A Inhibition Assay (HTRF); conditions: KDM5A protein, biotin-labelled H3K4-Me3 substrate
Experimental: Biochemical KDM5A Inhibition Assay
Using 384-well white Greiner784075 (Greiner), representative compounds were characterized for their inhibition of KDM5A using HTRF® technology (Cisbio Bioassays). Briefly, the test compounds, reference compounds, and DMSO control (typical compound concentration range 1 μM-[…], final assay concentration (FAC*) of DMSO 0.5%) were added to 384-well plate by the Echo® acoustic dispensing platform (Labcyte). Five (5) 1l of KDM5A protein (produced by the method described in Nat Chem Biol 12, 531-538 (2016)). (5-20 nM FAC*) in assay buffer (50 mM MES, 50 mM NaCl, 1 mM TCEP, 0.01% v/v Tween 20, 0.03% BSA, pH 6.5) was added to wells and plates were incubated for 10-20 minutes at 25 degrees celsius. Then, 5 μl of alpha-ketoglutaric acid (100 μM FAC*), biotin-labelled H3K4-Me3 substrate (Anaspec Cat #AS-64357-1; 200 nM FAC*), Fe(II)SO4 (100 μM FAC*) and ascorbic acid (2 mM FAC*) in assay buffer was added to wells and plates were incubated for 20 minutes at room temperature. The reaction was stopped with the addition of 10 μl of anti-H3K4-Me2-Eu(K) (Cisbio Bioassays Cat #61KA2KAH; 0.75 nM FAC**)+Streptavidin XL665 (Cisbio Bioassays Cat #610SAXLB; 25 nM FAC**) in HTRF detection buffer (Cisbio Bioassays Cat #62SDBRDF). The mixture was incubated for 30 minutes at room temperature before 340 nm excitation and measurement of dual emission at 620 nm and 665 run. *FAC: final assay concentration calculated based on 10 μl of the assay buffer**FAC: final assay concentration calculated based on 20 μl of the detection buffer
The raw data (a 665 nm and a 620 nm reading from each well) for individual assay plates were analyzed. The ratio of emissions was calculated using the following calculation: Ratio=(665 nm emission/620 nm emission)×10000. […] Compound IC50 values were calculated from graphs of % inhibition plotted against compound concentration, using a four parameter curve fit. [Results]

[1] = Metabolic Stability in Human Liver Microsomes; format: in vitro ADME
Experimental: Metabolic Stability in Human Liver Microsomes
Human liver microsome (BD Gentest Corporation, Cat No. #452161) incubations were conducted in duplicate in 96-well plates. Each well contains 40 μL of 0.1 M potassium phosphate buffer (pH 7.4), 4.125 mM MgCl2, 0.625 mg/mL liver microsomes, and test compound (1.25 μM). After 5-min preincubation at 37° C., 10 uL of 5.0 mM NADPH in 0.1M potassium phosphate buffer was added to initiate the enzymatic reaction. The final component concentrations are 0.1M potassium phosphate buffer (pH 7.4), 1.0 mM NADPH, 3.3 mM MgCl2, 0.5 mg/mL liver microsomes, and test compound (1.0 μM). Reactions were terminated at 0 and 60 min by adding 200 μL of ice-cold acetonitrile containing internal standard.
LC-MS/MS analysis was conducted as specified below.
The remaining at 60 min (%) of test compound was calculated from the peak area ratio (test compound/internal standard) of samples collected 0 and 60 min after the start of the reaction according to the formula described below. Remaining at 60 min (%)=peak area ratio of sample collected at 60 min/peak area ratio of sample collected at 0 min×100 [Results]

[2] = Brain Concentration in Mice; format: in vivo; conditions: mouse, mice (C57BL/6)
Experimental: Brain Concentration in Mice
Test compounds were orally administered to mice (C57BL/6) at 1 or 3 mg/kg. Brain samples were collected 2 h after the administration and homogenized with 3-fold volumes of distilled water.
LC-MS/MS analysis was conducted as specified below. Standard calibration samples were prepared using the same matrix and analyzed in the same manner.
Standard calibration samples were analyzed to calculate a regression equation from the peak area ratio (test compound/internal standard). The peak area ratio was determined for a measurement sample and assigned to the regression equation to calculate an assay value.

[3] = human, microsomes, 1 h, 1 μM, pH 7.4
[4] = po, orally administered, 1 mg/kg, brain 2 h after administration, read-out: Unbound-Brain Concentration at 2 h at 1 mg/kg
[5] = 0.5 mg/mL liver microsomes, 1.0 μM test compound, 1.0 mM NADPH, 37° C., 60 min

Sequence of KDM5A (P29375 whole entry): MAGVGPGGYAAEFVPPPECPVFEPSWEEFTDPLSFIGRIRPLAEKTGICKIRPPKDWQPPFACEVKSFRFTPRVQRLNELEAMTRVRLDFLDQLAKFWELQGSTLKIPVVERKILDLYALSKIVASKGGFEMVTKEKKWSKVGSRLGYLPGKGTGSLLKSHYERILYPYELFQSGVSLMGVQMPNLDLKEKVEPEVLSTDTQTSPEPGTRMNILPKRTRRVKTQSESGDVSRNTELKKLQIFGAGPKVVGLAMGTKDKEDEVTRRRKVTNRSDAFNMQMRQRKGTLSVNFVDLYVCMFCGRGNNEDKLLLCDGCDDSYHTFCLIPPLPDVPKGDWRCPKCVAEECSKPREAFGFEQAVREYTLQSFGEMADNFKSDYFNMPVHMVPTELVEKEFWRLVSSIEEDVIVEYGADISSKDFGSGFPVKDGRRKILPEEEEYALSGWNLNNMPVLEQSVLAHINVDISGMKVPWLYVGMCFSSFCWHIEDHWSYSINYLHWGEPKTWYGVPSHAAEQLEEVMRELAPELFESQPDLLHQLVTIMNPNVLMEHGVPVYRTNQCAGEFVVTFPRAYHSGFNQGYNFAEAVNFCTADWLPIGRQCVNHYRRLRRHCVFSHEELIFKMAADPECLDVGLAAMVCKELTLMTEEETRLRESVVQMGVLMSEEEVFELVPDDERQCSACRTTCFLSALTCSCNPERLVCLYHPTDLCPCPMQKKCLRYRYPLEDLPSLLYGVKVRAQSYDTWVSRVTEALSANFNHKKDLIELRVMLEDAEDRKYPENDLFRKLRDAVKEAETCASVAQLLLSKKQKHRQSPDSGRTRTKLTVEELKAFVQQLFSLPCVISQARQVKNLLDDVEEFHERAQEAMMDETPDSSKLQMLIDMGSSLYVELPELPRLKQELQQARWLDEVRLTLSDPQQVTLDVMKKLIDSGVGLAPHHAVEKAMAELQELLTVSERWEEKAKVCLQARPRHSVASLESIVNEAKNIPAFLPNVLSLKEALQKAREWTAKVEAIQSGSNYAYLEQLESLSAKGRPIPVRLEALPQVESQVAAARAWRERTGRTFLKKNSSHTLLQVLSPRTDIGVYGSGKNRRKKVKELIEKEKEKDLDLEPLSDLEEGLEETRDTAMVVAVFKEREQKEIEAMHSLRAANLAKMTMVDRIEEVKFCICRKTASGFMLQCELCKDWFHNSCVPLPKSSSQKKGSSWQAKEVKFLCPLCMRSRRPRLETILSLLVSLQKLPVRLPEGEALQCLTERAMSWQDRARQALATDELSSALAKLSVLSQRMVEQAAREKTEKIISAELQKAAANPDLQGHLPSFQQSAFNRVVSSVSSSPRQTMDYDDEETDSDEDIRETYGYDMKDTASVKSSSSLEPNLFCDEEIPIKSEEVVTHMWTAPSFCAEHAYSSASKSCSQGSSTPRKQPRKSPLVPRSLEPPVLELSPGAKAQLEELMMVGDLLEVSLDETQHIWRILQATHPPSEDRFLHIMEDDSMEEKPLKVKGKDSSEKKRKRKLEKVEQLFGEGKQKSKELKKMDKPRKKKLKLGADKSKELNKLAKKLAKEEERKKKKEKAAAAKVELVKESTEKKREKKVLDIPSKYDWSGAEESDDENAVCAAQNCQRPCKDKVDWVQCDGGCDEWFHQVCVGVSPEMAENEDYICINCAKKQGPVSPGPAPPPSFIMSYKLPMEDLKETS

With `CC(C)n1cnc(C(=O)N2C[C@@H]3[C@H](C2)[C@H]3C2=NOC(C)(C)C2)c1` [Example 1, [(1R,5S,6r)-6-(5,5-dimethyl-4,5-dihydro-1,2-oxazol-3-yl)-3-azabicyclo[3.1.0]hex-3-yl](1-isopropyl-1H-imidazol-4-yl)methanone] as the compound, how does the IC50 (KDM5A) read?
The IC50 was 20 nM.

And the “Metabolic stability in human liver microsomes (% remaining at 60 min)” value (from here on “Metabolic stability … (% remaining at 60 min)”) [1, 3]?
The value was 95%.

What about the concentration at 2 h ([2]; brain, oral, 2 h, values with * obtained by proportional calculation from the 3 mg/kg data, read-out: Unbound-Brain Concentration at 2 h at 1 mg/kg) of the same compound?
Its concentration at 2 h is 93.7 ng/g.

What does the source list for `CC[C@H](C)n1cnc(C(=O)N2C[C@@H]3[C@H](C2)[C@H]3C2=NOC(C)(C)C2)c1` [Example 12, {1-[(2S)-butan-2-yl]-1H-imidazol-4-yl}[(1R,5S,6S)-6-(5,5-dimethyl-4,5-dihydro-1,2-oxazol-3-yl)-3-azabicyclo[3.1.0]hex-3-yl]methanone]?
IC50 (KDM5A): 60 nM; Metabolic stability in human liver microsomes (% remaining at 60 min) [1, 3]: 100%; concentration at 2 h [2, 4]: 10.8 ng/g

What does the source list for `CC1(C)CC([C@H]2[C@@H]3CN(C(=O)c4cn(C5(C)CC5)cn4)C[C@@H]32)=NO1` [Example 33, [(1R,5S,6r)-6-(5,5-dimethyl-4,5-dihydro-1,2-oxazol-3-yl)-3-azabicyclo[3.1.0]hex-3-yl][1-(1-methylcyclopropyl)-1H-imidazol-4-yl]methanone]?
IC50 (KDM5A): 30 nM; Metabolic stability in human liver microsomes (% remaining at 60 min) [1, 3]: 103%; concentration at 2 h [2, 4]: 62.1 ng/g

Which IC50 (KDM5A) does the source give for `CC(C)n1cnc(C(=O)N2C[C@@H]3[C@H](C2)[C@H]3C(=O)C2CC2)c1` [Example 75, cyclopropyl{(1R,5S,6r)-3-[(1-isopropyl-1H-imidazol-4-yl)carbonyl]-3-azabicyclo[3.1.0]hex-6-yl}methanone] here?
The IC50 was 400 nM.

And the “Metabolic stability … (% remaining at 60 min)” value ([1]; human, microsomes, 1 h)?
Its value is 102%.

For `CC(C)n1cnc(C(=O)N2C[C@@H]3[C@H](C2)[C@@]3(C)C2=NOC3(CC3)C2)c1` [Example 84, (1-isopropyl-1H-imidazol-4-yl)[(1R,5S,6r)-6-methyl-6-(4-oxa-5-azaspiro[2.4]hept-5-en-6-yl)-3-azabicyclo[3.1.0]hex-3-yl]methanone], which IC50 (KDM5A) is on record?
Its IC50 is 30 nM.

What about the “Metabolic stability … (% remaining at 60 min)” value [1, 5] of the same compound?
Its value is 92%.

For `CC(C)n1cnc(C(=O)N2C[C@@H]3[C@H](C2)[C@@]3(C)C(=O)NC(C)(C)C)c1` [Example 87, (1R,5S,6r)-N-tert-butyl-6-methyl-3-[1-(propan-2-yl)-1H-imidazole-4-carbonyl]-3-azabicyclo[3.1.0]hexane-6-carboxamide], which IC50 (KDM5A) is on record?
The IC50 was 40 nM.

What about the “Metabolic stability … (% remaining at 60 min)” value [1, 5] of the same compound?
Its value is 99%.

For `CC(c1cc(C(=O)N2C[C@@H]3C(C4=NOC(C)(C)C4)[C@@H]3C2)n[nH]1)C1CC1` (stereo partly drawn) [Example 90, [5-(1-cyclopropylethyl)-1H-pyrazol-3-yl][(1R,5S,6r)-6-(5,5-dimethyl-4,5-dihydro-1,2-oxazol-3-yl)-3-azabicyclo[3.1.0]hex-3-yl]methanone], which IC50 (KDM5A) is on record?
Its IC50 is 50 nM.

What about the “Metabolic stability … (% remaining at 60 min)” value [1, 5] of the same compound?
The value was 100%.

For `CC1CC(C2[C@H]3CN(C(=O)c4cc(C(C)C)[nH]n4)C[C@@H]23)=NO1` (stereo partly drawn) [Example 93, (5-isopropyl-1H-pyrazol-3-yl)[(1R,5S,6r)-6-(5-methyl-4,5-dihydro-1,2-oxazol-3-yl)-3-azabicyclo[3.1.0]hex-3-yl]methanone], which IC50 (KDM5A) is on record?
Its IC50 is 200 nM.

What about the “Metabolic stability … (% remaining at 60 min)” value ([1]; human, microsomes, 1 h) of the same compound?
The value was 86%.

Which results are given for `CC(C)c1cc(C(=O)N2C[C@@H]3[C@H](C2)[C@H]3C2=NO[C@H]3C[C@@H]23)n[nH]1` [Example 96, (5-isopropyl-1H-pyrazol-3-yl){(1R,5S,6r)-6-[(1S,5S)-2-oxa-3-azabicyclo[3.1.0]hex-3-en-4-yl]-3-azabicyclo[3.1.0]hex-3-yl}methanone]?
IC50 (KDM5A): 30 nM; Metabolic stability in human liver microsomes (% remaining at 60 min) ([1]; human, microsomes, 1 h): 83%

For `CCN1C([C@H]2[C@@H]3CN(C(=O)c4cc(C(C)C)[nH]n4)C[C@@H]32)=NOC1(C)C` [Example 110, [(1R,5S,6r)-6-(4-ethyl-5,5-dimethyl-4,5-dihydro-1,2,4-oxadiazol-3-yl)-3-azabicyclo[3.1.0]hex-3-yl](5-isopropyl-1H-pyrazol-3-yl)methanone], which IC50 (KDM5A) is on record?
The IC50 was 50 nM.

What about the “Metabolic stability … (% remaining at 60 min)” value ([1]; human, microsomes, 1 h) of the same compound?
Its value is 85%.

What does the source list for `Cc1nnc([C@H]2[C@@H]3CN(C(=O)c4cc(C(C)C)[nH]n4)C[C@@H]32)o1` [Example 119, (5-isopropyl-1H-pyrazol-3-yl)[(1R,5S,6r)-6-(5-methyl-1,3,4-oxadiazol-2-yl)-3-azabicyclo[3.1.0]hex-3-yl]methanone]?
IC50 (KDM5A): 300 nM; Metabolic stability in human liver microsomes (% remaining at 60 min) ([1]; human, microsomes, 1 h): 102%

With `CC(C)c1cc(C(=O)N2C[C@@H]3[C@H](C2)[C@H]3c2nncn2-c2ccccc2)n[nH]1` [Example 121, (5-isopropyl-1H-pyrazol-3-yl)[(1R,5S,6r)-6-(4-phenyl-4H-1,2,4-triazol-3-yl)-3-azabicyclo[3.1.0]hex-3-yl]methanone] as the compound, how does the IC50 (KDM5A) read?
The IC50 was 40 nM.

What about the “Metabolic stability … (% remaining at 60 min)” value ([1]; human, microsomes, 1 h) of the same compound?
Its value is 114%.

Which IC50 (KDM5A) does the source give for `Cc1nnc([C@H]2[C@@H]3CN(C(=O)c4cc(C(C)C)[nH]n4)C[C@@H]32)n1C1CCC1` [Example 124, [(1R,5S,6r)-6-(4-cyclobutyl-5-methyl-4H-1,2,4-triazol-3-yl)-3-azabicyclo[3.1.0]hex-3-yl](5-isopropyl-1H-pyrazol-3-yl)methanone] here?
Its IC50 is 40 nM.

What about the “Metabolic stability … (% remaining at 60 min)” value ([1]; human, microsomes, 1 h) of the same compound?
The value was 97%.

For `COc1ccc2nnc([C@H]3[C@@H]4CN(C(=O)c5cc(C(C)C)[nH]n5)C[C@@H]43)n2c1` [Example 131, (5-isopropyl-1H-pyrazol-3-yl)[(1R,5S,6r)-6-(6-methoxy[1,2,4]triazolo[4,3-a]pyridin-3-yl)-3-azabicyclo[3.1.0]hex-3-yl]methanone], which IC50 (KDM5A) is on record?
The IC50 was 10 nM.

And the “Metabolic stability … (% remaining at 60 min)” value ([1]; human, microsomes, 1 h)?
Its value is 84%.

For `CC(C)NC(=O)[C@H]1[C@@H]2CN(C(=O)c3cc(C(C)C)[nH]n3)C[C@@H]21` [Example 136, (1R,5S,6r)-N-(propan-2-yl)-3-[5-(propan-2-yl)-1H-pyrazole-3-carbonyl]-3-azabicyclo[3.1.0]hexane-6-carboxamide], which IC50 (KDM5A) is on record?
The IC50 was 50 nM.

What about the “Metabolic stability … (% remaining at 60 min)” value ([1]; human, microsomes, 1 h) of the same compound?
The value was 97%.

Which IC50 (KDM5A) does the source give for `C[C@]1(C2=NOC3(CC3)C2)[C@@H]2CN(C(=O)c3cc(C4CC4)[nH]n3)C[C@@H]21` [Example 144, (5-cyclopropyl-1H-pyrazol-3-yl)[(1R,5S,6r)-6-methyl-6-(4-oxa-5-azaspiro[2.4]hept-5-en-6-yl)-3-azabicyclo[3.1.0]hex-3-yl]methanone] here?
The IC50 was 20 nM.

And the “Metabolic stability … (% remaining at 60 min)” value [1, 5]?
The value was 101%.

Which results are given for `CC(C)c1cc(C(=O)N2C[C@@H]3[C@H](C2)[C@@]3(C)C(=O)NC(C)(C)C)n[nH]1` [Example 145, (1R,5S,6r)-N-tert-butyl-6-methyl-3-[5-(propan-2-yl)-1H-pyrazole-3-carbonyl]-3-azabicyclo[3.1.0]hexane-6-carboxamide]?
IC50 (KDM5A): 90 nM; Metabolic stability in human liver microsomes (% remaining at 60 min) ([1]; human, microsomes, 1 h): 99%

With `CC(C)c1cc(C(=O)N2CC[C@@H](NC(=O)C3CC3)C2)[nH]n1` [comparative compound, (R)—N-(1-(3-isopropyl-1H-pyrazole-5-carbonyl)pyrrolidin-3-yl)cyclopropane carboxamide, reference compound] as the compound, how does the concentration at 2 h ([2]; brain, oral, 2 h, comparative compound, dose not restated in the sentence, read-out: Unbound-Brain Concentration at 2 h) read?
Its concentration at 2 h is 2.5 ng/g.
